Earlier results in patent US11324965B2, “Non-invasive energy upconversion methods and systems” (IMMUNOLIGHT, LLC., priority 2009, dated 2022).
Read-outs that look alike come from different tables or passages of the source. Square brackets hold non-standard residues; d marks the D form. Peptide text beside a SMILES is read from it. Bpa = N[CH](Cc1ccc(C(=O)c2ccccc2)cc1)C(=O)O; 2Nal = N[CH](Cc1ccc2ccccc2c1)C(=O)O; Aib = CC(C)(N)C(=O)O

Tests used:
[1] = for KSSET (Average): average over λex 224, 266, 280 nm
tumors = details: in vivo
[2] = orange juice, high UV exposure of 100 mJ/cm^2

SMILES	KSSET (Average) [1]	KSSET ([1]; λex 224 nm)	KSSET ([1]; λex 266 nm)	KSSET ([1]; λex 280 nm)	duration of skin photosensitivity (in vivo)	duration of skin photosensitivity (clinical use)	selectivity for tumors compared to normal tissues (tumors)	degradation of Vitamin C [2]
C=C(NC(C)(C)C(=O)NC(Cc1ccc2ccccc2c1)C(=O)NC(C)(C)C(=O)NC(Cc1ccc(C(=O)c2ccccc2)cc1)C(=O)NC(C)(C)C(=O)NC(C)C(=O)O)C(C)NC(=O)[C@@H](C)N (single isomer, unassigned) [Compound 2A]	3 × 10^7 S^−1	2.1 × 10^7 S^−1	3.7 × 10^7 S^−1	3.2 × 10^7 S^−1	–	–	–	–
C=C(NC(C)(C)C(=O)NC(Cc1ccc2ccccc2c1)C(=O)NC(C)(C)C(=O)NC(Cc1ccc(C(=O)c2ccccc2)cc1)C(=O)NC(C)(C)C(=O)NC(C)C(=O)O)C(C)NC(=O)[C@@H](C)N (single isomer, unassigned) [Compound 2B]	3.9 × 10^7 S^−1	3.1 × 10^7 S^−1	3.9 × 10^7 S^−1	4.7 × 10^7 S^−1	–	–	–	–
CC1NC(=O)C(C)(C)NC(=O)C(Cc2ccc(C(=O)c3ccccc3)cc2)NC(=O)C(C)(C)NC(=O)C(C)NC(=O)C(C)(C)NC(=O)C(Cc2ccc3ccccc3c2)NC(=O)C(C)(C)NC1=O (centres unmarked) [Compound 1A] (cyclo([Aib][2Nal][Aib]A[Aib][Bpa][Aib]A); configuration not given here)	3.67 × 10^7 S^−1	3.8 × 10^7 S^−1	3.6 × 10^7 S^−1	3.6 × 10^7 S^−1	–	–	–	–
CC(NC(=O)C(C)(C)NC(=O)C(Cc1ccc(C(=O)c2ccccc2)cc1)NC(=O)C(C)(C)NC(=O)C(C)NC(=O)C(C)(C)NC(=O)C(Cc1ccc2ccccc2c1)NC(=O)C(C)(C)N)C(=O)O (centres unmarked) [Compound 1B] (H-[Aib][2Nal][Aib]A[Aib][Bpa][Aib]A-OH; configuration not given here)	1.87 × 10^8 S^−1	2.44 × 10^8 S^−1	1.8 × 10^8 S^−1	1.36 × 10^8 S^−1	–	–	–	–
Oc1cccc(-c2c3nc(c(-c4cccc(O)c4)c4ccc([nH]4)c(-c4cccc(O)c4)c4nc(c(-c5cccc(O)c5)c5ccc2[nH]5)CC4)C=C3)c1 [Foscan, Tetra (m-hydroxyphenyl) chlorin]	–	–	–	–	approximately 2 weeks	–	–	–
CC(=O)[O-].CC(=O)[O-].CCc1c(CC)c2cc3nc(cnc4cc(OCCOCCOCCOC)c(OCCOCCOCCOC)cc4ncc4nc(cc1[n-]2)C(CCCO)=C4C)C(C)=C3CCCO.O.[Lu+3] [Lutetium texaphryin, Motexafin lutetium]	–	–	–	–	–	24 to 48 h	one of the greatest reported selectivities for tumors	–
O=C1O[C@H]([C@@H](O)CO)C(O)=C1O [Vitamin C]	–	–	–	–	–	–	–	17%
